Entries after “also recorded” stand apart in the source; their conditions may differ.
Legend:
[1] = tested on: MDSCs; experiment: MDSC suppression assay: inhibition of T cell proliferation by in vitro generated MDSCs; format: cell-based, mouse
Experimental: (§1) FIG. 2. […] (A) MDSCs were produced in vitro from mouse bone marrow cells using GM-CSF and G-CSF±BRQ (1 μM) or ATRA (10 μM) at the start of the 4-day culture. Cells tested for their ability to inhibit T cell proliferation (1:1 ratio), as in FIG. 5. Fresh BM=Uncultured bone marrow cells. (B) Similar to A, except that uridine (200 μM) was added to rescue the effect of BRQ. (C) Expression of IRF8 (upper) or SLFN4 (lower) was analyzed by qRT-PCR in Lin^− BM cells cultured as in A for 2 days. Data normalized to the vehicle.
(§2) In Vitro Development of MDSCs. Unfractionated mouse bone marrow cells were cultured in dishes with recombinant mouse G-CSF and recombinant mouse GM-CSF (40 ng/ml of each cytokine) for 96 hours to produce MDSCs, as described (Marigo et al. Immunity 32:790-802, 2010). After culture, cells were collected and analyzed by flow cytometry for the indicated cell surface markers. Uncultured or fresh bone marrow (BM) cells served as a negative control.
Cultured Cells Develop Potent Immunosuppressive Capacity. Using the methods described for FIG. 4, experiments were then performed to determine whether the cells generated from this BM culture system functionally behaved as MDSCs, based on their ability to inhibit T cell proliferation in vitro. To that end, fresh BM (i.e., no in vitro culture) or cultured BM cells (i.e., MDSCs at two different MDSC-to-T cell ratios of 1:1 or 1:2) were co-mixed in 96-well plates with CellTrace Violet (CTV)—stained syngeneic naïve splenocytes as a source of T cells and stimulated with or without soluble agonistic anti-CD3 monoclonal antibody (mAb) (1 μg/ml) for 72 hours. After co-culture, CTV dye dilution in the gated CD4^+ or CD8^+ T cell fractions within the splenocyte populations was analyzed by flow cytometry to determine the extent of proliferation based on dye dilution. In FIG. 5, top panels show CTV dye dilution, as determined by flow cytometry and depicted as a histogram; bottom panels indicate the percentage of proliferation, based on quantification of the histogram data. […]

[2] = tested on: MDSCs; experiment: Phenotype, viability and morphology of in vitro generated MDSC cultures; format: cell-based, mouse
Experimental: as §2
Effect of BRQ Treatment on In Vitro Generated MDSCs. As in FIG. 4, MDSCs were generated in vitro, but now with or without (vehicle) the concurrent addition of brequinar (BRQ) (1 μM) at the start of the culture. After culture, cells were collected and analyzed by flow cytometry for the indicated cell surface markers. Uncultured (fresh) BM cells served as a negative control. Viable cells were enumerated by trypan blue dye exclusion (bottom left panel, % viability; bottom right panel, total viable cells recovered).
Cells Treated with BRQ Appear More Mature Morphologically and Phenotypically. Methods were the same as in FIG. 6. MDSCs were generated in vitro with or without BRQ. Afterwards, cells were collected and analyzed morphologically by Wright-Giemsa staining of cytospin-prepared slides. Left top panel, representative photomicrograph images [(arrows indicate representative immature myeloid (−BRQ) vs. mature (+BRQ) cell types)]; Left bottom panel, the % of each cell type was quantified as follows. Cells were classified into 3 main morphologic cell types, as shown. For the lower panel, 300 cells were analyzed per random field and 3 separate fields were analyzed (totaling 900 cells). The average number of each cell type was determined by dividing by 3, and the data were converted to a percentage within the total population. Using the in vitro assay described previously to produce MDSCs, the CD11b^+Ly6C^lo Ly6G^+ subset (also known as PMN-MDSCs) was analyzed for cell surface CD101 expression by flow cytometry on cultures without BRQ (labeled here as ‘GM-CSF+G-CSF’) or with BRQ. Isotype control staining was included as a negative control for the specificity of CD101 reactivity. Middle panel, representative histogram; right panel, mean fluorescence intensity (MFI) data quantified from 2 separate experiments.

[3] = tested on: IRF8; experiment: qRT-PCR in Lin- BM cells cultured 2 days; format: cell-based, mouse; conditions: bone marrow cells cultured with BRQ, normalized to vehicle
Experimental: as §1

[4] = tested on: SLFN4; experiment: qRT-PCR in Lin- BM cells cultured 2 days; format: cell-based, mouse; conditions: bone marrow cells cultured with BRQ, normalized to vehicle
Experimental: as §1

[5] = tested on: E0771; experiment: E0771 mammary tumor model: bone marrow multi-spectral flow cytometry; format: in vivo; conditions: endpoint
Experimental: BRQ Alters the Bone Marrow Myeloid Compartment in Triple Negative Breast Cancer Model. This study was performed in another mammary tumor model, termed E0771. The experimental design is as described in FIG. 12 and bone marrow cells were collected at endpoint, as in FIG. 19 for flow cytometric analysis. Here, BM samples were analyzed by multi-spectral high dimensional flow cytometry using a Cytek Aurora Spectral Flow Cytometer and the data are illustrated as a TSNE plot (i.e, t-distributed Stochastic Neighbor). Circled regions refer to the data of interest.

[6] = BRQ 1 μM, trypan blue dye exclusion
[7] = bone marrow cells cultured with BRQ, morphologic analyses
[8] = cultures with BRQ, Wright-Giemsa staining

Cc1c(-c2ccc(-c3ccccc3F)cc2)nc2ccc(F)cc2c1C(=O)O [BRQ, 6-Fluoro-2-(2′-fluoro-[1,1′-biphenyl]-4-yl)-3-methylquinoline-4-carboxylic acid]
ability of in vitro generated MDSCs to inhibit CD4+ or CD8+ T cell proliferation ([1]; BRQ 1 μM at start of 4-day culture, MDSC:T cell 1:1): inhibits MDSC-mediated immune suppression in vitro; also recorded: more effective than ATRA in limiting the formation of immune suppressive cells in vitro; also recorded: significantly reduced the ability of these in vitro-generated MDSCs to inhibit T cell proliferation; also recorded: mitigates MDSC suppressive activity; also recorded: significantly less suppressive to CD4^+ or CD8^+ T cell proliferation compared to cultures containing ATRA | ability of in vitro generated MDSCs to inhibit T cell proliferation, uridine rescue ([1]; BRQ 1 μM plus extracellular uridine 200 μM): exogenously supplied uridine blocked the effect of BRQ; also recorded: the addition of uridine antagonized the effect of BRQ and restored MDSC suppressive activity | generation of CD11b+Gr-1+ cells ([2]; BRQ 1 μM, flow cytometry): did not substantially alter | cell viability [2, 6]: not significantly altered | number of live cells recovered [2, 6]: substantially reduced | mature myeloid cells (mainly neutrophils and macrophages) [2, 7]: corresponding increase in mature myeloid cells | reduction in immature myeloid cells [2, 7]: 75% | immature cell types [2, 8]: reduction in immature cell types | proportion of macrophages [2, 8]: no demonstrable effect | proportion of segmented neutrophils [2, 8]: increased the proportion of segmented neutrophils | cell surface CD101 expression (MFI) on CD11b+Ly6CloLy6G+ subset ([2]; cultures with BRQ, flow cytometry): significantly increased the expression of CD101 | IRF8 expression [3]: increase in IRF8 expression | SLFN4 expression [4]: reciprocal decrease in SLFN4 expression | frequency of granulocyte progenitors (GPs) in bone marrow [5]: reduced the frequency of granulocyte progenitors | frequency of monocyte progenitors (MPs) in bone marrow [5]: increased the frequency of monocyte progenitors
